According to ChEMBL document CHEMBL3044552, “Synthesis and biological evaluation of 1-(3-chloro-2-oxo-4-phenylazetidin-1-yl)-3-(2-oxo-2-(10H-phenothiazin-10-yl)ethyl)urea derivatives” (Med Chem Res, 2013):
In brackets after ≈: the same amount, converted by molar mass. Activity calls are given as the source filed them. No cut-off for these calls is given here.

Tests used:
Vibrio cholerae [1] = experiment: Antibacterial activity against Vibrio cholerae after 24 hr by disk diffusion method; type: functional
Pseudomonas aeruginosa [2] = experiment: Antibacterial activity against Pseudomonas aeruginosa after 24 hr by disc diffusion method; type: functional
Escherichia coli [3] = experiment: Antibacterial activity against Escherichia coli after 18 hr by serial dilution method; type: functional
HeLa [4] = experiment: Growth inhibition of Homo sapiens (human) HeLa cells at 12.5 uM after 48 hr by MTT assay; type: functional; details: read-out: GI
[5] = Antioxidant activity assessed as reduction of ferric ion after 30 min by spectrophotometric analysis; type: functional
Bacillus subtilis [6] = experiment: Antibacterial activity against Bacillus subtilis after 24 hr by disk diffusion method; type: functional
Salmonella paratyphi [7] = experiment: Antibacterial activity against Salmonella enterica subsp. enterica serovar Paratyphi A after 24 hr by disk diffusion method; type: functional
HeLa [8] = experiment: Growth inhibition of Homo sapiens (human) HeLa cells at 50 uM after 48 hr by MTT assay; type: functional; details: read-out: GI
Salmonella paratyphi [9] = experiment: Antibacterial activity against Salmonella enterica subsp. enterica serovar Paratyphi A after 18 hr by serial dilution method; type: functional
Staphylococcus aureus [10] = experiment: Antibacterial activity against Staphylococcus aureus after 24 hr by disk diffusion method; type: functional
Staphylococcus aureus [11] = experiment: Antibacterial activity against Staphylococcus aureus after 18 hr by serial dilution method; type: functional
HeLa [12] = experiment: Growth inhibition of Homo sapiens (human) HeLa cells at 6.25 uM after 48 hr by MTT assay; type: functional; details: read-out: GI
Trichophyton rubrum [13] = experiment: Antifungal activity against Trichophyton rubrum after 24 hr by disk diffusion method; type: functional
Micrococcus luteus [14] = experiment: Antibacterial activity against Micrococcus luteus after 18 hr by serial dilution method; type: functional
Vibrio cholerae [15] = experiment: Antibacterial activity against Vibrio cholerae after 18 hr by serial dilution method; type: functional
HeLa [16] = experiment: Growth inhibition of Homo sapiens (human) HeLa cells at 100 uM after 48 hr by MTT assay; type: functional; details: read-out: GI
HeLa [17] = experiment: Cytotoxicity against Homo sapiens (human) HeLa cells after 48 hr by MTT assay; type: functional, cell-based
Monascus purpureus [18] = experiment: Antifungal activity against Monascus purpureus after 18 hr by serial dilution method; type: functional
Candida albicans [19] = experiment: Antifungal activity against Candida albicans after 24 hr by disk diffusion method; type: functional
[20] = test system: Radical scavenging activity; experiment: Antioxidant activity assessed as DPPH radical scavenging activity after 30 min by spectrophotometric analysis; type: functional
Bacillus subtilis [21] = experiment: Antibacterial activity against Bacillus subtilis after 18 hr by serial dilution method; type: functional
Micrococcus luteus [22] = experiment: Antibacterial activity against Micrococcus luteus after 24 hr by disk diffusion method; type: functional
Candida albicans [23] = experiment: Antifungal activity against Candida albicans after 18 hr by serial dilution method; type: functional
HeLa [24] = experiment: Growth inhibition of Homo sapiens (human) HeLa cells at 25 uM after 48 hr by MTT assay; type: functional; details: read-out: GI
Aspergillus niger [25] = experiment: Antifungal activity against Aspergillus niger after 24 hr by disc diffusion method; type: functional
[26] = test system: Staphylococcus epidermidis; experiment: Antibacterial activity against Staphylococcus albus after 18 hr by serial dilution method; type: functional
[27] = test system: Staphylococcus epidermidis; experiment: Antibacterial activity against Staphylococcus albus after 24 hr by disk diffusion method; type: functional
Pseudomonas aeruginosa [28] = experiment: Antibacterial activity against Pseudomonas aeruginosa after 18 hr by serial dilution method; type: functional
Monascus purpureus [29] = experiment: Antifungal activity against Monascus purpureus after 24 hr by disk diffusion method; type: functional
Escherichia coli [30] = experiment: Antibacterial activity against Escherichia coli after 24 hr by disc diffusion method; type: functional
Trichophyton rubrum [31] = experiment: Antifungal activity against Trichophyton rubrum after 18 hr by serial dilution method; type: functional
Aspergillus niger [32] = experiment: Antifungal activity against Aspergillus niger after 18 hr by serial dilution method; type: functional
[33] = test system: Mycobacterium tuberculosis; experiment: Growth inhibition of Mycobacterium tuberculosis H37Rv at 1 ug/ml after 7 days by resazurin microplate assay; type: functional, organism-based
[34] = test system: Mycobacterium tuberculosis; experiment: Growth inhibition of Mycobacterium tuberculosis H37Rv at 100 ug/ml after 7 days by resazurin microplate assay; type: functional, organism-based
[35] = test system: Mycobacterium tuberculosis; experiment: Growth inhibition of Mycobacterium tuberculosis H37Rv at 10 ug/ml after 7 days by resazurin microplate assay; type: functional, organism-based

SMILES | diameter of the inhibition zone (DIZ) (Vibrio cholerae [1]) | MIC (Escherichia coli [3]) | inhibition of growth at 12.5 µM (HeLa [4]) | diameter of the inhibition zone (DIZ) (Bacillus subtilis [6]) | diameter of the inhibition zone (DIZ) (Salmonella paratyphi [7]) | inhibition of growth at 50 µM (HeLa [8]) | MIC (Salmonella paratyphi [9]) | diameter of the inhibition zone (DIZ) (Staphylococcus aureus [10]) | MIC (Staphylococcus aureus [11]) | inhibition of growth at 6.25 µM (HeLa [12]) | diameter of the inhibition zone (DIZ) (Trichophyton rubrum [13]) | MIC (Micrococcus luteus [14]) | MIC (Vibrio cholerae [15]) | inhibition of growth at 100 µM (HeLa [16]) | IC50 (HeLa [17]) | MIC (Monascus purpureus [18]) | diameter of the inhibition zone (DIZ) (Candida albicans [19]) | MIC (Bacillus subtilis [21]) | diameter of the inhibition zone (DIZ) (Micrococcus luteus [22]) | MIC (Candida albicans [23]) | further results
O=C(NCC(=O)N1c2ccccc2Sc2ccccc21)NN1C(=O)C(Cl)C1c1ccc(Cl)cc1 (centres undefined) | 18 mm | 62.5 µg/mL (≈ 122 µM) | 5.9% | 7 mm | 5 mm | 33.6% | 250 µg/mL (≈ 487 µM) | 4 mm | 62.5 µg/mL (≈ 122 µM) | 0.123% | 6 mm | 250 µg/mL (≈ 487 µM) | 62.5 µg/mL (≈ 122 µM) | 44.3% | 111 µM | 62.5 µg/mL (≈ 122 µM) | 7 mm | 125 µg/mL (≈ 243 µM) | 5 mm | 125 µg/mL (≈ 243 µM) | diameter of the inhibition zone (DIZ) (Pseudomonas aeruginosa [2]): 5 mm; Activity [5]: Active; EC50 [20]: 56 µg/mL (≈ 109 µM); inhibition of growth at 25 µM (HeLa [24]): 15.9%; diameter of the inhibition zone (DIZ) (Aspergillus niger [25]): 12 mm; MIC [26]: 250 µg/mL (≈ 487 µM); diameter of the inhibition zone (DIZ) [27]: 5 mm; MIC (Pseudomonas aeruginosa [28]): 250 µg/mL (≈ 487 µM); diameter of the inhibition zone (DIZ) (Monascus purpureus [29]): 12 mm; diameter of the inhibition zone (DIZ) (Escherichia coli [30]): 19 mm; MIC (Trichophyton rubrum [31]): 250 µg/mL (≈ 487 µM); MIC (Aspergillus niger [32]): 125 µg/mL (≈ 243 µM)
O=C(NCC(=O)N1c2ccccc2Sc2ccccc21)NN1C(=O)C(Cl)C1c1ccc([N+](=O)[O-])cc1 (centres undefined) | 5 mm | 62.5 µg/mL (≈ 119 µM) | 41.8% | 5 mm | 7 mm | 73.2% | 125 µg/mL (≈ 239 µM) | 4 mm | 250 µg/mL (≈ 477 µM) | 23.6% | 5 mm | 250 µg/mL (≈ 477 µM) | 250 µg/mL (≈ 477 µM) | 89.5% | 18.3 µM | 62.5 µg/mL (≈ 119 µM) | 14 mm | 250 µg/mL (≈ 477 µM) | 3 mm | 62.5 µg/mL (≈ 119 µM) | growth inhibition (GI) [33]: inactive; inhibition of growth at 25 µM (HeLa [24]): 56.5%; diameter of the inhibition zone (DIZ) (Aspergillus niger [25]): 9 mm; MIC [26]: 250 µg/mL (≈ 477 µM); growth inhibition (GI) [34]: Active; diameter of the inhibition zone (DIZ) [27]: 4 mm; MIC (Pseudomonas aeruginosa [28]): 500 µg/mL (≈ 954 µM); diameter of the inhibition zone (DIZ) (Monascus purpureus [29]): 13 mm; growth inhibition (GI) [35]: inactive; diameter of the inhibition zone (DIZ) (Escherichia coli [30]): 15 mm; MIC (Trichophyton rubrum [31]): 250 µg/mL (≈ 477 µM); MIC (Aspergillus niger [32]): 500 µg/mL (≈ 954 µM)
